We go through 18 compounds from patent publication US20230322767A1, “ARYL SUBSTITUTED PYRROLO-PYRIDINONES AND THERAPEUTIC USES THEREOF” (Bayer Aktiengesellschaft, priority 2020, published 2023).

Each structure is given as a SMILES string. Where “and” joins values, the source holds several entries; their conditions need not be identical. Equal values may be shown once.

The target of the first assay is wild-type Epidermal Growth Factor Receptor (EGFR) (Homo sapiens (Human), UniProt P00533). In words: WT-EGFR Kinase Assay (TR-FRET, 2 mM ATP). It is filed as biochemical. Conditions: EGFR Wildtyp 2 mM ATP IC50 [mol/l] (median), median or individual measurements. The source says: Inhibitory activity of compounds of the present invention against wild-type Epidermal Growth Factor Receptor (EGFR) was quantified employing the TR-FRET based EGFR assay as described in the following paragraphs.
wild-type Epidermal Growth Factor Receptor (EGFR), sequence (P00533 669-1210): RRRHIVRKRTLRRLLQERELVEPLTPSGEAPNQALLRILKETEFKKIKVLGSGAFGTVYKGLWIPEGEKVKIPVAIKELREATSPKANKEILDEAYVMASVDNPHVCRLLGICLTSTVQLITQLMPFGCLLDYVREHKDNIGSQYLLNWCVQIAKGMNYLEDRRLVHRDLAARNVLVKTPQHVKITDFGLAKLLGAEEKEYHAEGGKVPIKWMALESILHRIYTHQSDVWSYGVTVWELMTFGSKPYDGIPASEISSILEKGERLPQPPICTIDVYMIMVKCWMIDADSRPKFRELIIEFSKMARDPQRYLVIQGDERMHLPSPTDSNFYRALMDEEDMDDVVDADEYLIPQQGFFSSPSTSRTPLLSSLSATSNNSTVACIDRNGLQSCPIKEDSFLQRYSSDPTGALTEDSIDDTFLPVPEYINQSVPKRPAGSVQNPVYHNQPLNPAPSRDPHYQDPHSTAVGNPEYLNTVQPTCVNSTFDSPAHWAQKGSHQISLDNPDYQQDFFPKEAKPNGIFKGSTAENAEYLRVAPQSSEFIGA
Recombinant fusion protein of N-terminal Glutathion-S-Transferase (GST) and a fragment of human EGFR (amino acids R669 to A1210), expressed in Sf9 insect cells and purified via affinity chromatography using Glutathion Sepharose as described above, was used as kinase. As substrate for the kinase reaction the biotinylated peptide biotin-Ahx-[…] (C-terminus in amide form) was used which can be purchased e.g. form the company Biosynthan GmbH (Berlin-Buch, Germany).
For the assay 50 nl of a 100 fold concentrated solution of the test compound in DMSO was pipetted into either a black low volume 384 well microtiter plate or a black 1536 well microtiter plate (both Greiner Bio-One, Frickenhausen, Germany), 2 μL of a solution of EGFR in aqueous assay buffer [50 mM Hepes pH 7.0, 10 mM MgCl2, 1 mM dithiothreitol, 0.5 mM EGTA, 0.3 mM activated sodium ortho-vanadate, 0.005% (w/v) bovine serum albumin, 0.005% (v/v) Tween-20] were added and the mixture was incubated for 15 min at 22° C. to allow pre-binding of the test compounds to the enzyme before the start of the kinase reaction. […] The concentration of EGFR was adjusted depending of the activity of the enzyme lot and was chosen appropriate to have the assay in the linear range, typical concentration was […]. The reaction was stopped by the addition of 3 μL of a solution of HTRF detection reagents (83.3 nM streptavidine-XL665 [Cisbio Bioassays, Codolet, France] and 1.67 nM PT66-Tb-Cryptate, a terbium-cryptate labelled anti-phospho-tyrosine antibody from Cisbio Bioassays [instead of the PT66-Tb-cryptate PT66-Eu-Chelate from Perkin Elmer can also be used]) in an aqueous EDTA-solution (133.3 mM EDTA, 0.2% (w/v) bovine serum albumin in 50 mM HEPES pH 7.5).
The resulting mixture was incubated 1 h at 22° C. to allow the binding of the biotinylated phosphorylated peptide to the streptavidine-XL665 and the PT66-Tb-Cryptate. Subsequently the amount of phosphorylated substrate was evaluated by measurement of the resonance energy transfer from the PT66-Tb-Cryptate to the streptavidine-XL665. Therefore, the fluorescence emissions at 620 nm and 665 nm after excitation at 337 nm were measured in a HTRF reader, e.g. a Pherastar (BMG Labtechnologies, Offenburg, Germany) or a Viewlux (Perkin-Elmer). The ratio of the emissions at 665 nm and at 622 nm was taken as the measure for the amount of phosphorylated substrate.
As for `Cn1ccc2[nH]c(-c3ccnc(NC(=O)C(CC(F)F)c4ccc(F)cc4)c3)c(-c3ccccc3)c2c1=O` (single isomer, unassigned) [Example 007, 4,4-difluoro-2-(4-fluorophenyl)-N-[4-(5-methyl-4-oxo-3-phenyl-4,5-dihydro-1H-pyrrolo[3,2-c]pyridin-2-yl)pyridin-2-yl]butanamide], the IC50 was 11.8 µM and 13.4 µM.
Regarding `CC(C(=O)Nc1cc(-c2[nH]c3c(CC4CC4)cn(C)c(=O)c3c2-c2ccc(F)cc2)ccn1)c1ccc(F)cc1` (racemic) [Example 063, N-{4-[7-(cyclopropylmethyl)-3-(4-fluorophenyl)-5-methyl-4-oxo-4,5-dihydro-1H-pyrrolo[3,2-c]pyridin-2-yl]pyridin-2-yl}-2-(4-fluorophenyl)propanamide], the IC50 was > 20 µM.
Turning to `CC(C(=O)Nc1cc(-c2[nH]c3c(CC4CC4)cn(C)c(=O)c3c2-c2ccccc2)ccn1)c1ccc(F)cc1` (racemic) [Example 058, N-{4-[7-(cyclopropylmethyl)-5-methyl-4-oxo-3-phenyl-4,5-dihydro-1H-pyrrolo[3,2-c]pyridin-2-yl]pyridin-2-yl}-2-(4-fluorophenyl)propanamide], the IC50 is > 20 µM.
Still for that read-out and setting: the value for `CC(C(=O)Nc1cc(-c2[nH]c3c(CC(F)(F)F)cn(C)c(=O)c3c2-c2ccccc2)ccn1)c1ccc(F)cc1` (racemic) [Example 014, 2-(4-fluorophenyl)-N-{4-[5-methyl-4-oxo-3-phenyl-7-(2,2,2-trifluoroethyl)-4,5-dihydro-1H-pyrrolo[3,2-c]pyridin-2-yl]pyridin-2-yl}propanamide] was > 20 µM; that for `CC(C(=O)Nc1cc(-c2[nH]c3c(c2-c2ccccc2)C(=O)NCC3(C)C)ccn1)c1ccc(F)cc1` (single isomer, unassigned) [Example 047, N-[4-(7,7-dimethyl-4-oxo-3-phenyl-4,5,6,7-tetrahydro-1H-pyrrolo[3,2-c]pyridin-2-yl)pyridin-2-yl]-2-(4-fluorophenyl)propanamide] was > 20 µM; that for `CC(C(=O)Nc1cc(-c2[nH]c3c(c2-c2ccccc2)C(=O)N(C)C2(CCC2)C3)ccn1)c1ccc(F)cc1` (racemic) [Example 052, 2-(4-fluorophenyl)-N-[4-(5′-methyl-4′-oxo-3′-phenyl-1′,4′,5′,7′-tetrahydrospiro[cyclobutane-1,6′-pyrrolo[3,2-c]pyridin]-2′-yl)pyridin-2-yl]propanamide] was > 20 µM.
The same measure, in the same setting: the same measure for `CN1C(=O)c2c([nH]c(-c3ccnc(NC(=O)C(CC(F)F)c4ccc(F)cc4)c3)c2-c2ccccc2)CC12CCC2` (racemic) [Example 049, 4,4-difluoro-2-(4-fluorophenyl)-N-[4-(5′-methyl-4′-oxo-3′-phenyl-1′,4′,5′,7′-tetrahydrospiro[cyclobutane-1,6′-pyrrolo[3,2-c]pyridin]-2′-yl)pyridin-2-yl]butanamide]: > 20 µM.
For the compound `Cc1cn(C)c(=O)c2c(-c3ccccc3)c(-c3ccnc(NC(=O)C(CC(F)F)c4ccc(F)cc4)c3)[nH]c12` (racemic) [Example 040, N-[4-(5,7-dimethyl-4-oxo-3-phenyl-4,5-dihydro-1H-pyrrolo[3,2-c]pyridin-2-yl)pyridin-2-yl]-4,4-difluoro-2-(4-fluorophenyl)butanamide], the IC50 is > 20 µM.
`Cn1cc(CC(F)(F)F)c2[nH]c(-c3ccnc(NC(=O)C(CC(F)F)c4ccc(F)cc4)c3)c(-c3ccc(F)cc3)c2c1=O` (single isomer, unassigned) [Example 028, 4,4-difluoro-2-(4-fluorophenyl)-N-{4-[3-(4-fluorophenyl)-5-methyl-4-oxo-7-(2,2,2-trifluoroethyl)-4,5-dihydro-1H-pyrrolo[3,2-c]pyridin-2-yl]pyridin-2-yl}butanamide]: the IC50 was > 5.71 µM.
For the compound `CC(C(=O)Nc1cc(-c2[nH]c3c(CC(F)(F)F)cn(C)c(=O)c3c2-c2ccc(F)cc2)ccn1)c1ccc(F)cc1` (racemic) [Example 022, 2-(4-fluorophenyl)-N-{4-[3-(4-fluorophenyl)-5-methyl-4-oxo-7-(2,2,2-trifluoroethyl)-4,5-dihydro-1H-pyrrolo[3,2-c]pyridin-2-yl]pyridin-2-yl}propanamide], the IC50 was > 20 µM.
Still for that read-out and setting: the value for `CC1(C)CNC(=O)c2c1[nH]c(-c1ccnc(NC(=O)C(CC(F)F)c3ccc(F)cc3)c1)c2-c1ccccc1` (single isomer, unassigned) [Example 044, N-[4-(7,7-dimethyl-4-oxo-3-phenyl-4,5,6,7-tetrahydro-1H-pyrrolo[3,2-c]pyridin-2-yl)pyridin-2-yl]-4,4-difluoro-2-(4-fluorophenyl)butanamide] was > 20 µM.

The same assay, now with this note: read-out: EGFR Wildtyp 2 mM ATP IC50 [mol/l] (median), median or individual measurements.
For `CC1CN(C)C(=O)c2c1[nH]c(-c1ccnc(NC(=O)C(C)c3ccc(F)cc3)c1)c2-c1ccccc1` (stereo not drawn) [Example 037], the IC50 is > 20 µM.
In the case of `Cn1cc(CC2CC2)c2[nH]c(-c3ccnc(NC(=O)Cc4ccc(F)cc4)c3)c(-c3ccccc3)c2c1=O` [Example 056, N-{4-[7-(cyclopropylmethyl)-5-methyl-4-oxo-3-phenyl-4,5-dihydro-1H-pyrrolo[3,2-c]pyridin-2-yl]pyridin-2-yl}-2-(4-fluorophenyl)acetamide], the IC50 was > 20 µM.
As to `CC(C(=O)Nc1cc(-c2[nH]c3c(c2-c2ccc(F)cc2)C(=O)N(C)CC3CC2CC2)ccn1)c1ccc(F)cc1` (stereo not drawn) [Example 062], the IC50 is > 5.71 µM.
Same read-out and setting: the same measure for `CC(C(=O)Nc1cc(-c2[nH]c3c(c2-c2ccccc2)C(=O)N(C)CC3CC2CC2)ccn1)c1ccc(F)cc1` (stereo not drawn) [Example 057]: > 20 µM; for `Cn1cc(CC(F)(F)F)c2[nH]c(-c3ccnc(NC(=O)C(CC(F)F)c4ccc(F)cc4)c3)c(-c3ccccc3)c2c1=O` (single isomer, unassigned; (+)) [Example 020, (+)-4,4-difluoro-2-(4-fluorophenyl)-N-{4-[5-methyl-4-oxo-3-phenyl-7-(2,2,2-trifluoroethyl)-4,5-dihydro-1H-pyrrolo[3,2-c]pyridin-2-yl]pyridin-2-yl}butanamide]: > 20 µM; for `CC1CN(C)C(=O)c2c1[nH]c(-c1ccnc(NC(=O)C(CC(F)F)c3ccc(F)cc3)c1)c2-c1ccccc1` (stereo not drawn) [Example 039]: > 20 µM.
On the same count and under the same terms, the value for `CN1CC(CC(F)(F)F)c2[nH]c(-c3ccnc(NC(=O)C(CC(F)F)c4ccc(F)cc4)c3)c(-c3ccccc3)c2C1=O` (stereo not drawn) [Example 017] was > 20 µM.
